Values of other authors in patent US4701458A (priority 1985, dated 1987).

Key:
ST = conditions: cited from earlier work
guanylate cyclase = conditions: cited from earlier work
[1] = tested on: intestinal fluid secretion; conditions: in vivo; cited from earlier work

OCCS [2-mercaptoethanol]
effect on biological activity of ST (in words) (ST): loses biological activity promptly

COc1ccc(O)c(C(C)(C)C)c1 [Butylated hydroxyanisole]
effect on ST activation of guanylate cyclase (in words) (guanylate cyclase): significantly reduces | effect on ST-induced intestinal fluid secretion (in words) [1]: significantly reduces

NO [hydroxylamine]
effect on guanylate cyclase (in words) (guanylate cyclase): activates guanylate cyclase | effect on intestinal ion transport (in words) [1]: causes intestinal ion transport alterations similar to those seen with ST
